Test results taken from US20240158446A1, “CYCLIC COMPOUND HAVING SELECTIVE INHIBITORY ACTION ON KRAS OVER HRAS AND NRAS” (CHUGAI SEIYAKU KABUSHIKI KAISHA, priority 2021, published 2024).
*1 amine or outer side, *2 acyl side, *3 side chain or, on linkers, in order; H or OH if unused. Where a SMILES comes first, the peptide text is derived from it. Bridges are numbered along the chain shown (N, C = ends). [ ]: non-standard residue; d: D form. The star is where a group is joined. hPhe(3,5-F2-4-CF3) = N[C@@H](CCc1cc(F)c(C(F)(F)F)c(F)c1)C(=O)O; NPrPhe(4-CF3) = CCCN[C@@H](Cc1ccc(C(F)(F)F)cc1)C(=O)O; NMeAbu(4,4,4-F3) = CN[C@@H](CC(F)(F)F)C(=O)O; X13 = O=C([C@@H](N[*:1])C1CC(F)(F)C1)[*:2]; NMeGly(cPent) = CN[C@H](C(=O)O)C1CCCC1; Ac4c(3,3-F2) = NC1(C(=O)O)CC(F)(F)C1; X8 = C[C@@](N[*:1])(C(=O)[*:2])C1CC1; αMeI = CC[C@H](C)[C@](C)(N)C(=O)O; NMeD = CN[C@@H](CC(=O)O)C(=O)O; Ac4c(3-oxa) = NC1(C(=O)O)COC1; NMeL = CN[C@@H](CC(C)C)C(=O)O; Iva = CC[C@](C)(N)C(=O)O; Morpholide = C1CN(*)CCO1; Ac5c = NC1(C(=O)O)CCCC1; Aze = O=C(O)[C@@H]1CCN1; Sar = CNCC(=O)O

Key:
[1] = biological target: GDP-bound KRAS wild-type protein (Homo sapiens, UniProt P01116); assay: Binding to KRAS by surface plasmon resonance (SPR), Single Cycle Kinetics; details: SPR Single Cycle Kinetics, GDP-bound KRAS wild-type protein, 1:1 binding model; read-out: KRAS KD
Sequence of GDP-bound KRAS wild-type protein (P01116 whole entry): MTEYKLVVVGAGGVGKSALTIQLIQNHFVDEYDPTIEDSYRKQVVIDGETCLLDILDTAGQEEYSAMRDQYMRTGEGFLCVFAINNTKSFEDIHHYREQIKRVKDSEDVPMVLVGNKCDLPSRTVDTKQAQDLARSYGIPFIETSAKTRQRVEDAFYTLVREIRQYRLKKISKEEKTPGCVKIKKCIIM

[2] = biological target: GDP-bound NRAS wild-type protein (Homo sapiens, UniProt P01111); assay: Binding to NRAS by surface plasmon resonance (SPR), Single Cycle Kinetics; details: SPR, GDP-bound NRAS wild-type protein vs GDP-bound KRAS wild-type protein
Sequence of GDP-bound NRAS wild-type protein (P01111 whole entry): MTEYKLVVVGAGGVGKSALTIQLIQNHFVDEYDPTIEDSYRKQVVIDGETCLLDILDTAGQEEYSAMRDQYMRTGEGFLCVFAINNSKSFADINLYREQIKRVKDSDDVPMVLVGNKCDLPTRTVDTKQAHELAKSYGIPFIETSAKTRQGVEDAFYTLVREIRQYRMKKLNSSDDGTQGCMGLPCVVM

[3] = biological target: GDP-bound HRAS wild-type protein (Homo sapiens, UniProt P01112); assay: Binding to HRAS by surface plasmon resonance (SPR), Single Cycle Kinetics; details: SPR, GDP-bound HRAS wild-type protein vs GDP-bound KRAS wild-type protein
Sequence of GDP-bound HRAS wild-type protein (P01112 whole entry): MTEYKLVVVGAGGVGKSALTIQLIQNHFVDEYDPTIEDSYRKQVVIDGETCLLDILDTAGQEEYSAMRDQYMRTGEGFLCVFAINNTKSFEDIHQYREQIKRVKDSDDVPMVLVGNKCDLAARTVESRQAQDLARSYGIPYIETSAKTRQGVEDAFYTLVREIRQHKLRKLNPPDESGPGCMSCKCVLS

Structure (SMILES) | Kd [1] | NRAS/KRAS (ratio of KD value with respect to NRAS to KD value with respect to KRAS) [2] | HRAS/KRAS (ratio of KD value with respect to HRAS to KD value with respect to KRAS) [3]
CCCN1C(=O)CN(C)C(=O)CN(C)C(=O)[C@H](C2CC(F)(F)C2)NC(=O)[C@H](CC(C)C)N(C)C(=O)C[C@@H](C(=O)N2CCOCC2)N(C)C(=O)[C@H](C2CCCC2)N(C)C(=O)C2(CCCC2)NC(=O)[C@@H]2CCCN2C(=O)[C@H](CCc2cc(F)c(C(F)(F)F)c(F)c2)NC(=O)CN(C)C(=O)[C@@H]1Cc1ccc(C(F)(F)F)cc1 [PP0769] ([NMeL][X13][Sar][Sar][NPrPhe(4-CF3)][Sar][hPhe(3,5-F2-4-CF3)]P[Ac5c][NMeGly(cPent)][NMeD]-Morpholide; lactam N-11) | 0.21 nM | B (a compound having 3 or more and less than 10 is denoted as B) | C (A compound having a KD ratio of 0.1 or more and less than 3 is denoted as C)
CCCN1C(=O)CN(C)C(=O)[C@@H]2CCN2C(=O)[C@H]([C@@H](C)CC)NC(=O)[C@H](CC(C)C)N(C)C(=O)C[C@@H](C(=O)N2CCOCC2)N(C)C(=O)[C@H](C2CCCC2)N(C)C(=O)C2(CCCC2)NC(=O)[C@@H]2CCCN2C(=O)[C@H](CCc2cc(F)c(C(F)(F)F)c(F)c2)NC(=O)CN(C)C(=O)[C@@H]1Cc1ccc(C(F)(F)F)cc1 [PP0770] ([NMeL]I[Aze][Sar][NPrPhe(4-CF3)][Sar][hPhe(3,5-F2-4-CF3)]P[Ac5c][NMeGly(cPent)][NMeD]-Morpholide; lactam N-11) | 0.84 nM | B (a compound having 3 or more and less than 10 is denoted as B) | B (a compound having 3 or more and less than 10 is denoted as B)
CCCN1C(=O)CN(C)C(=O)[C@@H]2CCN2C(=O)[C@H]([C@@H](C)CC)NC(=O)[C@H](CC(C)C)N(C)C(=O)C[C@@H](C(=O)N2CCOCC2)N(C)C(=O)[C@H](C2CCCC2)N(C)C(=O)[C@](C)([C@@H](C)CC)NC(=O)[C@@H]2CCCN2C(=O)[C@H](CCc2cc(F)c(C(F)(F)F)c(F)c2)NC(=O)CN(C)C(=O)[C@@H]1Cc1ccc(C(F)(F)F)cc1 [PP0774] ([NMeL]I[Aze][Sar][NPrPhe(4-CF3)][Sar][hPhe(3,5-F2-4-CF3)]P[αMeI][NMeGly(cPent)][NMeD]-Morpholide; lactam N-11) | 17 nM | B (a compound having 3 or more and less than 10 is denoted as B) | B (a compound having 3 or more and less than 10 is denoted as B)
CCCN1C(=O)CN(C)C(=O)[C@@H]2CCN2C(=O)[C@H]([C@@H](C)CC)NC(=O)[C@H](CC(C)C)N(C)C(=O)C[C@@H](C(=O)N2CCOCC2)N(C)C(=O)[C@H](C2CCCC2)N(C)C(=O)C2(COC2)NC(=O)[C@@H]2CCCN2C(=O)[C@H](CCc2cc(F)c(C(F)(F)F)c(F)c2)NC(=O)CN(C)C(=O)[C@@H]1Cc1ccc(C(F)(F)F)cc1 [PP0782] ([NMeL]I[Aze][Sar][NPrPhe(4-CF3)][Sar][hPhe(3,5-F2-4-CF3)]P[Ac4c(3-oxa)][NMeGly(cPent)][NMeD]-Morpholide; lactam N-11) | 2.3 nM | B (a compound having 3 or more and less than 10 is denoted as B) | B (a compound having 3 or more and less than 10 is denoted as B)
CCCN1C(=O)CN(C)C(=O)[C@@H]2CCN2C(=O)[C@H]([C@@H](C)CC)NC(=O)[C@H](CC(C)C)N(C)C(=O)C[C@@H](C(=O)N2CCOCC2)N(C)C(=O)[C@H](C2CCCC2)N(C)C(=O)C2(CC(F)(F)C2)NC(=O)[C@@H]2CCCN2C(=O)[C@H](CCc2cc(F)c(C(F)(F)F)c(F)c2)NC(=O)CN(C)C(=O)[C@@H]1Cc1ccc(C(F)(F)F)cc1 [PP0783] ([NMeL]I[Aze][Sar][NPrPhe(4-CF3)][Sar][hPhe(3,5-F2-4-CF3)]P[Ac4c(3,3-F2)][NMeGly(cPent)][NMeD]-Morpholide; lactam N-11) | 0.85 nM | B (a compound having 3 or more and less than 10 is denoted as B) | B (a compound having 3 or more and less than 10 is denoted as B)
CCCN1C(=O)CN(C)C(=O)[C@@H]2CCN2C(=O)[C@H]([C@@H](C)CC)NC(=O)[C@H](CC(C)C)N(C)C(=O)C[C@@H](C(=O)N2CCOCC2)N(C)C(=O)[C@H](CC(F)(F)F)N(C)C(=O)C2(CCCC2)NC(=O)[C@@H]2CCCN2C(=O)[C@H](CCc2cc(F)c(C(F)(F)F)c(F)c2)NC(=O)CN(C)C(=O)[C@@H]1Cc1ccc(C(F)(F)F)cc1 [PP0784] ([NMeL]I[Aze][Sar][NPrPhe(4-CF3)][Sar][hPhe(3,5-F2-4-CF3)]P[Ac5c][NMeAbu(4,4,4-F3)][NMeD]-Morpholide; lactam N-11) | 17 nM | B (a compound having 3 or more and less than 10 is denoted as B) | B (a compound having 3 or more and less than 10 is denoted as B)
CCCN1C(=O)CN(C)C(=O)[C@@H]2CCN2C(=O)[C@H](C2CC(F)(F)C2)NC(=O)[C@H](CC(C)C)N(C)C(=O)C[C@@H](C(=O)N2CCOCC2)N(C)C(=O)[C@H](C2CCCC2)N(C)C(=O)C2(CCCC2)NC(=O)[C@@H]2CCCN2C(=O)[C@H](CCc2cc(F)c(C(F)(F)F)c(F)c2)NC(=O)CN(C)C(=O)[C@@H]1Cc1ccc(C(F)(F)F)cc1 [PP0786] ([NMeL][X13][Aze][Sar][NPrPhe(4-CF3)][Sar][hPhe(3,5-F2-4-CF3)]P[Ac5c][NMeGly(cPent)][NMeD]-Morpholide; lactam N-11) | 0.6 nM | B (a compound having 3 or more and less than 10 is denoted as B) | B (a compound having 3 or more and less than 10 is denoted as B)
CCCN1C(=O)[C@@H]2CCN2C(=O)CN(C)C(=O)[C@H](C2CC(F)(F)C2)NC(=O)[C@H](CC(C)C)N(C)C(=O)C[C@@H](C(=O)N2CCOCC2)N(C)C(=O)[C@H](C2CCCC2)N(C)C(=O)C2(CCCC2)NC(=O)[C@@H]2CCCN2C(=O)[C@H](CCc2cc(F)c(C(F)(F)F)c(F)c2)NC(=O)CN(C)C(=O)[C@@H]1Cc1ccc(C(F)(F)F)cc1 [PP0787] ([NMeL][X13][Sar][Aze][NPrPhe(4-CF3)][Sar][hPhe(3,5-F2-4-CF3)]P[Ac5c][NMeGly(cPent)][NMeD]-Morpholide; lactam N-11) | 0.34 nM | C (A compound having a KD ratio of 0.1 or more and less than 3 is denoted as C) | B (a compound having 3 or more and less than 10 is denoted as B)
CCCN1C(=O)CN(C)C(=O)CN(C)C(=O)[C@H]([C@@H](C)CC)NC(=O)[C@H](CC(C)C)N(C)C(=O)C[C@@H](C(=O)N(C)C)N(C)C(=O)[C@H](C2CCCC2)N(C)C(=O)C2(CCCC2)NC(=O)[C@@H]2CCCN2C(=O)[C@H](CCc2cc(F)c(C(F)(F)F)c(F)c2)NC(=O)CN(C)C(=O)[C@@H]1Cc1ccc(C(F)(F)F)cc1 [PP0788] ([NMeL]I[Sar][Sar][NPrPhe(4-CF3)][Sar][hPhe(3,5-F2-4-CF3)]P[Ac5c][NMeGly(cPent)][NMeD]-NMe2; lactam N-11) | 0.054 nM | B (a compound having 3 or more and less than 10 is denoted as B) | C (A compound having a KD ratio of 0.1 or more and less than 3 is denoted as C)
CCCN1C(=O)[C@@H]2CCN2C(=O)CN(C)C(=O)[C@H]([C@@H](C)CC)NC(=O)[C@H](CC(C)C)N(C)C(=O)C[C@@H](C(=O)N2CCOCC2)N(C)C(=O)[C@H](C2CCCC2)N(C)C(=O)C2(CCCC2)NC(=O)[C@@H]2CCCN2C(=O)[C@H](CCc2cc(F)c(C(F)(F)F)c(F)c2)NC(=O)CN(C)C(=O)[C@@H]1Cc1ccc(C(F)(F)F)cc1 [PP0789] ([NMeL]I[Sar][Aze][NPrPhe(4-CF3)][Sar][hPhe(3,5-F2-4-CF3)]P[Ac5c][NMeGly(cPent)][NMeD]-Morpholide; lactam N-11) | 0.12 nM | C (A compound having a KD ratio of 0.1 or more and less than 3 is denoted as C) | B (a compound having 3 or more and less than 10 is denoted as B)
CCCN1C(=O)[C@@H]2CCN2C(=O)CN(C)C(=O)[C@H]([C@@H](C)CC)NC(=O)[C@H](CC(C)C)N(C)C(=O)C[C@@H](C(=O)N2CCOCC2)N(C)C(=O)[C@H](C2CCCC2)N(C)C(=O)[C@](C)(CC)NC(=O)[C@@H]2CCCN2C(=O)[C@H](CCc2cc(F)c(C(F)(F)F)c(F)c2)NC(=O)CN(C)C(=O)[C@@H]1Cc1ccc(C(F)(F)F)cc1 [PP0790] ([NMeL]I[Sar][Aze][NPrPhe(4-CF3)][Sar][hPhe(3,5-F2-4-CF3)]P[Iva][NMeGly(cPent)][NMeD]-Morpholide; lactam N-11) | 0.56 nM | C (A compound having a KD ratio of 0.1 or more and less than 3 is denoted as C) | B (a compound having 3 or more and less than 10 is denoted as B)
CCCN1C(=O)[C@@H]2CCN2C(=O)CN(C)C(=O)[C@H]([C@@H](C)CC)NC(=O)[C@H](CC(C)C)N(C)C(=O)C[C@@H](C(=O)N2CCOCC2)N(C)C(=O)[C@H](C2CCCC2)N(C)C(=O)[C@](C)(C2CC2)NC(=O)[C@@H]2CCCN2C(=O)[C@H](CCc2cc(F)c(C(F)(F)F)c(F)c2)NC(=O)CN(C)C(=O)[C@@H]1Cc1ccc(C(F)(F)F)cc1 [PP0791] ([NMeL]I[Sar][Aze][NPrPhe(4-CF3)][Sar][hPhe(3,5-F2-4-CF3)]P[X8][NMeGly(cPent)][NMeD]-Morpholide; lactam N-11) | 0.98 nM | C (A compound having a KD ratio of 0.1 or more and less than 3 is denoted as C) | B (a compound having 3 or more and less than 10 is denoted as B)
